For 26 compounds, EC50 results are on record in patent publication US8048899B2, “Compounds which selectively modulate the CB2 receptor” (Boehringer Ingelheim International GmbH, priority 2008, dated 2011).

As a reminder, the pEC50 is the negative decadic logarithm of the EC50, by convention in mol/L.

The structures appear in SMILES notation. pEC50: −log10 of the molar value. Like-named read-outs stand apart in the source and are kept apart here.

The target in one assay is T1, human CB2R (Homo sapiens, UniProt P34972).
T1 construct: host or cells: CHO cells
The experiment in a line: CB2R mediated modulation of cAMP synthesis. The class given is cell-based. The method, then:
B. CB2R Mediated Modulation of cAMP Synthesis:
Compounds of the invention are evaluated for their CB2 agonist or inverse agonistic activity in accordance with the following experimental method.
(§1) CHO cells expressing human CB2R (Euroscreen) are plated at a density of 5000 cells per well in 384 well plates and incubated overnight at 37° C. After removing the media, the cells are treated with test compounds diluted in stimulation buffer containing 1 mM IBMX, 0.25% BSA and 10 uM Forskolin. The assay is incubated for 30 minutes at 37° C. Cells are lysed and the cAMP concentration is measured using DiscoverX-XS cAMP kit, following the manufacturer's protocol. In this setting, agonists will decrease forskolin induced production of cAMP while inverse agonists will further increase forskolin induced production of cAMP. EC50 of agonists are calculated as follows. The maximal amount of cAMP produced by forskolin compared to the level of cAMP inhibited by 1 uM CP55940 is defined as 100%. […] Data is analyzed using a four-parameter logistic model. (Model 205 of XLfit 4.0).

The next assay deals with T2, human CB1R (Homo sapiens, UniProt P21554).
T2 construct: host or cells: CHO cells
The experiment in a line: CB1R mediated modulation of cAMP synthesis. Type of assay: cell-based. The method, then:
C. CB1R Mediated Modulation of cAMP Synthesis:
Compounds of the invention are evaluated for their CB1 agonist or inverse agonistic activity in accordance with the following experimental method.
as §1, with “CB1R” for “CB2R”

The mark [1] stands for this setting: CHO cells expressing human CB2R, inhibition of forskolin-stimulated cAMP synthesis, read-out: CB2 EC50.
Where [2] appears, read: CHO cells expressing human CB1R, inhibition of forskolin-stimulated cAMP synthesis, read-out: CB1 EC50.

T1 sequence (P34972 whole entry): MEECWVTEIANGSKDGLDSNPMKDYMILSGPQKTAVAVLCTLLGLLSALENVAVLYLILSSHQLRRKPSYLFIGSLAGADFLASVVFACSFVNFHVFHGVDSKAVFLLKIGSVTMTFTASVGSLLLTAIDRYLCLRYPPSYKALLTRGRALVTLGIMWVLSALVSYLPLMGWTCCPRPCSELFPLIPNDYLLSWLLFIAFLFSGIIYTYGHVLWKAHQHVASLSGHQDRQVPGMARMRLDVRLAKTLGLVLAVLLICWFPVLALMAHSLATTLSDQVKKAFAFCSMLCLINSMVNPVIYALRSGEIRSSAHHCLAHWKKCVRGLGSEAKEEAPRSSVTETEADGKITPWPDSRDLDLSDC
T2 sequence (P21554 whole entry): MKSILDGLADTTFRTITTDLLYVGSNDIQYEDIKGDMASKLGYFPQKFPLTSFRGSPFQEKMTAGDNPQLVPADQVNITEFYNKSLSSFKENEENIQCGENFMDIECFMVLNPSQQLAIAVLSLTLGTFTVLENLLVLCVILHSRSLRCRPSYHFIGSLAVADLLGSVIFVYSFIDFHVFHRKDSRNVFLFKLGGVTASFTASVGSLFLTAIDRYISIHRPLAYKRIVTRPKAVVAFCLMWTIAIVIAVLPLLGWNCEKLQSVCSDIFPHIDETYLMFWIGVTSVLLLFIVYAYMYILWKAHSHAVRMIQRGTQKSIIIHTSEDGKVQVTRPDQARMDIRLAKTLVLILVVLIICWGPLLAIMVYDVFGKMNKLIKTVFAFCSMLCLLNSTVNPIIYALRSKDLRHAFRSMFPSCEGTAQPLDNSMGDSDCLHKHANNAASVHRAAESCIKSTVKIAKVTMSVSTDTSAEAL

For `CC(C)(C(=O)Nc1cc(C2(CO)CCC2)no1)S(=O)(=O)CC1CCC1`, the pEC50 is 7.13 on human CB2R and less than 4.30 on human CB1R.

In the case of `COc1ccc(-c2nnc(NC(=O)C(C)(C)S(=O)(=O)C3CCOCC3)[nH]2)c(F)c1`, the pEC50 is 7.89 at human CB2R and less than 4.30 at human CB1R.

With `CC(C)(CO)c1cc(NC(=O)C(C)(C)S(=O)(=O)c2ccc(F)cc2)on1`, the pEC50 on human CB2R was 7.52; at human CB1R it was less than 4.70.

Take `CC(C)(C(=O)Nc1nnc(-c2ccc(O)cc2)[nH]1)S(=O)(=O)CC1CCOCC1`: the figures for the pEC50 on human CB2R and on human CB1R were 7.00 and less than 4.70, respectively.

For `CC(C)(C(=O)Nc1nnc(-c2ccc(OC(F)(F)F)cc2)[nH]1)S(=O)(=O)CC1CCOCC1`, the results for the pEC50 on human CB2R (setting [1]) and on human CB1R (setting [2]) were 6.47 and less than 4.70, respectively.

For the compound `CC(C)(CO)c1cc(NC(=O)C(C)(C)S(=O)(=O)C2CCOCC2)no1`, the values for the pEC50 at human CB2R and on human CB1R were 7.48 and less than 4.30, respectively.

Take `CC(C)(C(=O)Nc1cc(C2(CO)CCCC2)no1)S(=O)(=O)C1CCCC1`: the pEC50 was 7.35 at human CB2R and less than 4.70 on human CB1R.

Turning to `COc1ccc(-c2nnc(NC(=O)C(C)(C)S(=O)(=O)CC3CCOCC3)[nH]2)cc1`, the pEC50 was 8.02 at human CB2R and less than 4.30 on human CB1R.

Regarding `CC(C)(O)c1cc(NC(=O)C(C)(C)S(=O)(=O)C2CCOCC2)on1`, the results for the negative logarithm of the EC50 (pEC50) at human CB2R and on human CB1R were 7.06 and less than 4.30, respectively.

As for `CCOCC(C)(C)c1cc(NC(=O)C(C)(C)S(=O)(=O)C2CCOCC2)on1`, the pEC50 was 8.44 on human CB2R and less than 4.70 at human CB1R.

Consider `COCC(C)(C)c1cc(NC(=O)C(C)(C)S(=O)(=O)C2CCOCC2)on1`, for which the pEC50 on human CB2R is 8.51; at human CB1R, less than 4.70.

As to `CC(C)(C(=O)Nc1nnc(-c2ccc(OC(F)(F)F)cc2)[nH]1)S(=O)(=O)C1CCOCC1`, the pEC50 at human CB2R (setting [1]) is 6.71; at human CB1R (setting [2]), less than 4.70.

With `CC[C@@H](C)S(=O)(=O)C(C)(C)C(=O)Nc1nnc(-c2ccc(OC)cc2)[nH]1`, the pEC50 on human CB2R was 7.08; on human CB1R, less than 4.30.

As for `CC(C)(C(=O)Nc1nc(-c2ccccc2O)n[nH]1)S(=O)(=O)C1CCOCC1`, the results for the pEC50 at human CB2R and at human CB1R were 7.52 and less than 4.70, respectively.

Regarding `CC(C)(CO)c1cc(NC(=O)C(C)(C)S(=O)(=O)N2CCC2)on1`, the negative-log EC50 (pEC50) is 6.54 on human CB2R (setting [1]) and less than 4.70 on human CB1R (setting [2]).

In the case of `CC(C)(CO)c1cc(NC(=O)C(C)(C)S(=O)(=O)C2CCN(S(C)(=O)=O)CC2)on1`, the pEC50 is 7.85 on human CB2R and less than 4.30 at human CB1R.

For `COc1ccc(-c2nnc(NC(=O)C(C)(C)S(=O)(=O)C3CCCC3)[nH]2)cc1`, the pEC50 on human CB2R was 7.85; on human CB1R it was less than 4.70.

As for `CO[C@H]1CC[C@@H](S(=O)(=O)C(C)(C)C(=O)Nc2cc(C(C)(C)CO)no2)CC1`, the results for the pEC50 on human CB2R and at human CB1R were 7.24 and less than 4.30, respectively.

For the compound `CC(C)(CO)c1nnc(NC(=O)C(C)(C)S(=O)(=O)C[C@H]2CCCCO2)s1`, the figures for the pEC50 at human CB2R and on human CB1R were 7.55 and less than 4.30, respectively.

On to `COCC(C)(C)c1cc(NC(=O)C(C)(C)S(=O)(=O)CC2CC2)no1`, for which the negative-log EC50 (pEC50) was 6.92 at human CB2R (setting [1]) and less than 4.30 at human CB1R (setting [2]).

Turning to `CC(C)CCS(=O)(=O)C(C)(C)C(=O)Nc1cc(C2(CO)CC2)no1`, the pEC50 at human CB2R was 7.85; on human CB1R it was less than 4.70.

Regarding `CC(C)(CO)c1cc(NC(=O)C(C)(C)S(=O)(=O)C2CCN(S(C)(=O)=O)CC2)no1`, the figures for the pEC50 on human CB2R and at human CB1R were 7.04 and less than 4.30, respectively.

Turning to `CC(C)(C(=O)Nc1cc(C2(CO)CCCC2)no1)S(=O)(=O)CC1CCC1`, the pEC50 at human CB2R is 7.60; at human CB1R, less than 4.70.

`CCOc1ccc(-c2nnc(NC(=O)C(C)(C)S(=O)(=O)C3CCOCC3)[nH]2)cc1`: the pEC50 is 6.68 on human CB2R (setting [1]) and less than 4.30 on human CB1R (setting [2]).

`CC(C)(CO)c1cc(NC(=O)C(C)(C)S(=O)(=O)CC2CCC2)on1`: the pEC50 is 7.09 on human CB2R and less than 4.70 at human CB1R.

On to `COc1ccc(-c2nnc(NC(=O)C(C)(C)S(=O)(=O)CC3CC3)[nH]2)cc1`, for which the results for the pEC50 on human CB2R and at human CB1R were 7.49 and less than 4.30, respectively.
